The test system of this experiment is RSV-infected BALB/c mice. Description: Alveolar fluid clearance (AFC) in RSV-infected mice at day 2 p.i. The experiment is classed as in vivo. As to conditions: for effect on RSV-mediated inhibition of AFC at d2 (in words): systemic treatment (leflunomide oral gavage; uridine, 6-MP i.p.). How it is done:
Preparation of viral inocula and infection of mice. […] J. Physiol. Lung Cell Mol. Physiol. […] Data for each experimental group was derived from a minimum of 2 independent infections.
Systemic inhibition of de novo pyrimidine and purine synthesis. Leflunomide (5-methylisoxazole-4-[4-trifluoromethyl]carboxanilide, 35 mg/kg in distilled water containing 1% methylcellulose) was administered once daily by oral gavage in a volume of 300 μl/mouse for 8 days prior to infection, then throughout the infection period. Vehicle controls were gavaged with an equivalent volume of 1% methylcellulose in distilled water.
To systemically block de novo pyrimidine synthesis, mice were gavaged once daily for 8 days with […] of the dihydro-orotate reductase (DHOR) inhibitor leflunomide ([…] suspended in 1% methylcellulose) or vehicle prior to infection, then at 0 and 24 hours p.i. AFC studies were performed at 48 hours p.i., with no additions to the AFC instillate.
AFC studies were performed on anesthetized, ventilated BALB/c mice with normal body temperature and blood gases, over a 30 minute period after intratracheal instillation of 0.3 ml of isosmolar NaCl containing 5% fatty acid-free BSA. The number of mice analyzed per group is listed in the relevant bar of each graph.

Entries after “also recorded” stand apart in the source; their conditions may differ.

As to `Cc1oncc1C(=O)Nc1ccc(C(F)(F)F)cc1` [Leflunomide, 5-methylisoxazole-4-[4-trifluoromethyl]carboxanilide], the “effect on RSV-mediated inhibition of AFC at d2 (in words)” value (“effect on RSV-mediated inhibition” below) is “blocked RSV-induced inhibition of AFC”. In addition, the “amiloride-sensitive part of AFC” value (RSV-infected leflunomide-treated mice at d2 (61% in uninfected, −8% in untreated mice at d2)) stood at 57%. The “AFC30BASAL (mean % basal AFC after 30 minutes ± SE)” value (RSV-infected mice, day 2 p.i., leflunomide 5 mg/kg oral gavage once daily, uridine 1 mg/kg i.p. q12h) came to 33.4 ± 3.00 %. In addition, the “effect on RSV-mediated inhibition” value (listed as LEF) is “reverses RSV-mediated inhibition of AFC”. In addition, the “effect on RSV-mediated inhibition” value (listed as leflunomide) was “prevented RSV-induced inhibition of AFC; also recorded: reversed the inhibitory effect of RSV on AFC”.

(Values after patent US20070219224A1, “Compositions and Methods Relating to Pyrimidine Synthesis Inhibitors” (UAB RESEARCH FOUNDATION, THE, priority 2004, published 2007).)
